Common to all, as to format: cell-based
Assay [1] deals with T1, Human IDO-1 (Homo sapiens, UniProt P14902). The assay is described as follows: IDO Kynurenine Assay with Human IDO1/HEK293 cells (Basal L-Kynurenine readout). The settings on record: HEK Human IDO-1; for inhibition at 10 µM: HEK293, Primary SP, 10 μM compound, read-out: Basal_L-Kynurenine (IDO1 % inhib @ 10 μM); for IC50: Primary CRC, read-out: Basal_L-Kynurenine IDO1 Rel IC50. The protocol:
(§1) Compounds described in the Examples above were tested for inhibition of IDO activity with IDO Kynurenine Assay with Human ID01/HEK293 Cells.
(§2) Human ID01/HEK293 cells were seeded at 10,000 cells per 50 μL per well with RP Ml/phenol red free media containing 10% FBS in a 384-well black wall clear bottom tissue culture plate (Matrix Technologies LLC). 125 nL of certain concentration of compound was then added to each well using ECHO liquid handling systems. The cells were incubated for 20 hours in 37° C. incubator with 5% CO2.
The compound treatments were stopped by adding trichloroacetic acid (Sigma-Aldrich) to a final concentration at 0.2%. The cell plate was further incubated at 50° C. for 30 minute. The equal volume supernatant (20 μL) and 0.2% (w/v) Ehrlich reagent (4-dimethylaminobenzaldehyde, Sigma-Aldrich) in glacial acetic acid were mixed in a new clear bottom 384-well plate. This plate was then incubated at room temperature for 30 minute. The absorbance at 490 nm was measured on Envision plate reader.

Assay [2] deals with T1, Human IDO-1. The assay is described as follows: HEK Human IDO-1 cells, Basal N-formyl-kynurenine readout. The conditions noted are these: Primary CRC, read-out: Basal_N-formyl-kyn IDO1 Rel IC50. How it is done: as §1, §2
In a further assay the test system is Human ID01/HEK293 cells. The assay is described as follows: HEK Human IDO-1 cells, Basal Viability. The conditions noted are these: Primary CRC, HEK Human IDO-1 cell viability, read-out: Basal_Viability Rel IC50. How it is done: as §2

From patent publication US10858351B2, “Substituted tetrahydropyridine derivatives as IDO-1 inhibitors and uses thereof” (Alberta Research Chemicals Inc., priority 2017, dated 2020) come the findings set out here.

Each structure is given as a SMILES string.

T1 sequence (P14902 whole entry): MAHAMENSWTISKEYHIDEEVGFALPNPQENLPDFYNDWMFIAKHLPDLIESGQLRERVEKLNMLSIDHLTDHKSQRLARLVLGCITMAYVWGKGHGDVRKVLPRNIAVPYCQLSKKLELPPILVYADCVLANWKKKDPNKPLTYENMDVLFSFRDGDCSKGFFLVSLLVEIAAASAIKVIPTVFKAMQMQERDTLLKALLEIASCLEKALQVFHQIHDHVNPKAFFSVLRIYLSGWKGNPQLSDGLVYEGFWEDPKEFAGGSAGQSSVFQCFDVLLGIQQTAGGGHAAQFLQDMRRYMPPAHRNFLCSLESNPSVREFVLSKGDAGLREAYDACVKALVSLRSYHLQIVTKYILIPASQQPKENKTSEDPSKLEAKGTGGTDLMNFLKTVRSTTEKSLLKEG

Broadly, the IC50 is the concentration at which inhibition is half-maximal. As for `CN1CCN(c2cccc(C3=CCN(Cc4cccc(NC(=O)NC5CCCCC5)c4)CC3)n2)CC1` [Example 8, 1-Cyclohexyl-3-{3-[6-(4-methyl-piperazin-1-yl)-3′,6′-dihydro-2′H-[2,4′]bipyridinyl-1′-ylmethyl]-phenyl}-urea], the inhibition at 10 µM at Human IDO-1 [1] was less than 90%. For the same compound, the IC50 was more than 2 µM on Human IDO-1 [1], more than 2 µM at Human IDO-1 [2] and more than 50 µM in the assay with Human ID01/HEK293 cells.

In the case of `CCNC(=O)Nc1cccc(CN2CC=C(c3cccc(N4CCN(C)CC4)n3)CC2)c1` [Example 7, 1-Ethyl-3-{3-[6-(4-methyl-piperazin-1-yl)-3′,6′-dihydro-2′H-[2,4′]bipyridinyl-1′-ylmethyl]-phenyl}-urea], the inhibition at 10 µM at Human IDO-1 [1] was less than 90%. Also, the figures for the concentration for half-maximal inhibition (IC50) at Human IDO-1 [1], at Human IDO-1 [2] and in the assay with Human ID01/HEK293 cells were more than 2 µM, more than 2 µM and more than 50 µM, respectively.

In the case of `CCNC(=O)Nc1cccc(CN2CC=C(c3cccc(N4CCCCC4)n3)CC2)c1` [Example 4, 1-Ethyl-3-[3-(6-piperidine-1-yl-3′,6′-dihydro-2′H-[2,4′]bipyridinyl-1′-ylmethyl)-phenyl]-urea], the inhibition at 10 µM on Human IDO-1 [1] was more than 90%. Also, the concentration for half-maximal inhibition (IC50) was less than 2 µM at Human IDO-1 [1], less than 2 µM on Human IDO-1 [2] and more than 50 µM in the assay with Human ID01/HEK293 cells.

On to `CN1CCN(c2cccc(C3=CCN(Cc4cccc(NC(=O)NC5CC5)c4)CC3)n2)CC1` [Example 9, 1-Cyclopropyl-3-{3-[6-(4-methyl-piperazin-1-yl)-3′,6′-dihydro-2′H-[2,4′]bipyridinyl-1′-ylmethyl]-phenyl}-urea], for which, at Human IDO-1 [1], the inhibition at 10 µM was less than 90%. In addition, the IC50 on Human IDO-1 [1] is more than 2 µM; at Human IDO-1 [2] it was more than 2 µM; with Human ID01/HEK293 cells it was more than 50 µM.

On to `O=C(Nc1cccc(CN2CC=C(c3cccc(N4CCOCC4)n3)CC2)c1)NC1CCCCC1` [Example 2, 1-Cyclohexyl-3-[3-(6-morpholin-4-yl-3′,6′-dihydro-2′H-[2,4′]bipyridinyl-1′-ylmethyl)-phenyl]-urea], for which the inhibition at 10 µM on Human IDO-1 [1] is more than 90%. In addition, the IC50 on Human IDO-1 [1] is less than 2 µM; at Human IDO-1 [2], less than 2 µM; in the assay with Human ID01/HEK293 cells, more than 50 µM.

In the case of `O=C(Nc1cccc(CN2CC=C(c3cccc(N4CCCCC4)n3)CC2)c1)NC1CC1` [Example 6, 1-Cyclopropyl-3-[3-(6-piperidin-1-yl-3′,6′-dihydro-2′H-[2,4′]bipyridinyl-1′-ylmethyl)-phenyl]-urea], on Human IDO-1 [1], the inhibition at 10 µM is more than 90%. Moreover, the concentration for half-maximal inhibition (IC50) on Human IDO-1 [1] was less than 2 µM; on Human IDO-1 [2] it was less than 2 µM; in the assay on Human ID01/HEK293 cells, more than 50 µM.

As to `CCNC(=O)Nc1cccc(CN2CC=C(c3cccc(N4CCOCC4)n3)CC2)c1` [Example 1, 1-Ethyl-3-[3-(6-morpholin-4-yl-3′,6′-dihydro-2′H-[2,4′]bipyridinyl-1′-ylmethyl)phenyl]urea], on Human IDO-1 [1], the inhibition at 10 µM was more than 90%. The figures for the 50% inhibitory concentration (IC50) on Human IDO-1 [1], on Human IDO-1 [2] and in the assay on Human ID01/HEK293 cells were less than 2 µM, less than 2 µM and more than 50 µM, respectively.

For the compound `O=C(Nc1cccc(CN2CC=C(c3cccc(N4CCCCC4)n3)CC2)c1)NC1CCCCC1` [Example 5, 1-Cyclohexyl-3-[3-(6-piperidine-1-yl-3′,6′-dihydro-2′H-[2,4′]bipyridinyl-1′-ylmethyl)-phenyl]-urea], the inhibition at 10 µM on Human IDO-1 [1] is more than 90%. Further, the IC50 is less than 2 µM at Human IDO-1 [1], less than 2 µM at Human IDO-1 [2] and more than 50 µM with Human ID01/HEK293 cells.
